For 13 molecules, EC50 ratio and ED30 results are on record in ChEMBL document CHEMBL1129721, “Application of the Heck reaction in the synthesis of truncated naphthoic acid retinoids” (1996).

Structures are written as SMILES. Calls of active or inactive are those of the source. The calls are words filed in the database; no cut-off is given here.

Assay [1] concerns the target T1, Retinoic acid receptor gamma (Homo sapiens) (UniProt P13631).
T1 sequence (whole entry): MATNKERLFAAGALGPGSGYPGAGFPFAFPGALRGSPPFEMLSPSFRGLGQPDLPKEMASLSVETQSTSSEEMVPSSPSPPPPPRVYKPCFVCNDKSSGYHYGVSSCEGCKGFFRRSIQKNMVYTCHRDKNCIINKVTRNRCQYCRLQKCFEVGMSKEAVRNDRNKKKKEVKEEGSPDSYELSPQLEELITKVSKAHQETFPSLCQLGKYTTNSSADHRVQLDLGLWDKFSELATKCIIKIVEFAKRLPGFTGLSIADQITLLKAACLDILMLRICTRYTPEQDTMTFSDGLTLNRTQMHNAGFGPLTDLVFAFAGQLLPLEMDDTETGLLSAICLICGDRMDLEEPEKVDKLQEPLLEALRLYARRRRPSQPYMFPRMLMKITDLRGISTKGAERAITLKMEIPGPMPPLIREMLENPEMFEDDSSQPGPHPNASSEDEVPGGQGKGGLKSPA
Put plainly: Transcriptional activation of retinoic acid RAR-gamma receptor; Not active.

Assay [2] addresses T2, Retinoic acid receptor beta (Homo sapiens) (UniProt P10826).
T2 sequence (whole entry): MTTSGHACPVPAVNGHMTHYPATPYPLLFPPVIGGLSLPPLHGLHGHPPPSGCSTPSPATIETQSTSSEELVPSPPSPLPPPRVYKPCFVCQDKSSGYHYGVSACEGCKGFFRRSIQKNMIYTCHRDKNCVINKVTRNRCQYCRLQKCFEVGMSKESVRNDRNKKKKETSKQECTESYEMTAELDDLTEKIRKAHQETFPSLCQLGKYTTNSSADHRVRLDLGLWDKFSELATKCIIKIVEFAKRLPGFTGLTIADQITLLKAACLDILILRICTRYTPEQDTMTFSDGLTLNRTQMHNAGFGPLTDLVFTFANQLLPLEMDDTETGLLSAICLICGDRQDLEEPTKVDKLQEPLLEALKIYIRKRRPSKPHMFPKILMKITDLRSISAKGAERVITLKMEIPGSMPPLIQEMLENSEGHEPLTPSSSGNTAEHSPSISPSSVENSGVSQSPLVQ
Put plainly: Transcriptional activation of retinoic acid RAR-beta receptor; Not active.

In assay [3] the target is T3, Retinoic acid receptor alpha (Homo sapiens) (UniProt P10276).
T3 sequence (whole entry): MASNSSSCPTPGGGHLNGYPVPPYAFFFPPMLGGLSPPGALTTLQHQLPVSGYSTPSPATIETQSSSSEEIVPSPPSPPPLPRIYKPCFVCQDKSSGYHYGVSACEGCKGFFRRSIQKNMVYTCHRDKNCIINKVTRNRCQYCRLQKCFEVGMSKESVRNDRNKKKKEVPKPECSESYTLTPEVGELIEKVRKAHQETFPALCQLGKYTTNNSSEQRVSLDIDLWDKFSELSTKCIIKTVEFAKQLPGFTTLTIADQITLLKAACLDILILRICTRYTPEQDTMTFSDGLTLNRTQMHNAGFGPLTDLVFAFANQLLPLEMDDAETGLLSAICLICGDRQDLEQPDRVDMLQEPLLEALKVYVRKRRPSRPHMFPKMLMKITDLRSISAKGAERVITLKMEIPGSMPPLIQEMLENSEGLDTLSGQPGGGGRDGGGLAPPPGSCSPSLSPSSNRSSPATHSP
Put plainly: Transcriptional activation of retinoic acid RAR-alpha receptor; Not active.

The species named for the next assay is Mus musculus. Put plainly: Concentration that induces 30% utriculi reduction in rhino mouse. Format: functional.

Consider `CC1(C)CCC(C)(C)c2cc(C(O)c3ccc(/C=C/C(=O)O)cc3)ccc21` (stereo unspecified), for which the EC50 ratio result in assay [1], in assay [2] and in assay [3] was “inactive” throughout. Besides, the ED30 in the assay filed under Mus musculus came to 1740 µM. Regarding `C/C(=C\C(=O)O)c1ccc(C(=O)c2ccc3c(c2)C(C)(C)CCC3(C)C)cc1`, the EC50 ratio result in assay [3] is “inactive”.

Turning to `CC1(C)CCC(C)(C)c2cc(C(=O)/C=C/c3ccc(C(=O)O)cc3)ccc21`, in the assay filed under Mus musculus, the ED30 was found to be 3.4 µM. As to `CC1(C)CCC(C)(C)c2cc(C(=O)c3ccc(/C=C/C(=O)O)cc3)ccc21`, in the assay filed under Mus musculus, the ED30 is 54 µM. Regarding `CC1(C)CCC(C)(C)c2cc(C(O)c3cccc(/C=C/C(=O)O)c3)ccc21` (stereo unspecified), the EC50 ratio entry in assay [1], in assay [2] and in assay [3] was “inactive” each time. As to `Cc1cc(C(=O)c2ccc3c(c2)C(C)(C)CCC3(C)C)ccc1/C=C/C(=O)O`, the EC50 ratio entry in assay [3] was “inactive”. This molecule also registered an ED30 in the assay listed under Mus musculus of 184 µM. For the molecule `CC1(C)CCC(C)(C)c2cc(C(=O)c3ccc4cc(C(=O)O)ccc4c3)ccc21`, the ED30 in the assay filed under Mus musculus turned out to be 29 µM. Molecule `CC1(C)CCC(C)(C)c2cc(C(O)c3ccc4cc(C(=O)O)ccc4c3)ccc21` (stereo unspecified) registered an ED30 in the assay listed under Mus musculus of 223 µM. For `CC1(C)CCC(C)(C)c2cc(C(O)/C=C/c3ccc(C(=O)O)cc3)ccc21` (stereo unspecified), the ED30 in the assay listed under Mus musculus was found to be 65 µM. In the case of `CC1(C)CCC(C)(C)c2cc(C(=O)c3ccc(C#CC(=O)O)cc3)ccc21`, the EC50 ratio entry in assay [3] was “inactive”. Moreover, the ED30 in the assay listed under Mus musculus amounted to 1000 µM. As for `CC1(C)CCC(C)(C)c2cc(C(=O)c3ccc(/C=C\C(=O)O)cc3)ccc21`, the EC50 ratio result in assay [3] is “inactive”. Turning to `CC1(C)CCC(C)(C)c2cc(C(=O)c3cccc(/C=C/C(=O)O)c3)ccc21`, the EC50 ratio result in assay [2] and in assay [3] was “inactive” in each case. Molecule `C/C(=C\c1ccc(C(=O)c2ccc3c(c2)C(C)(C)CCC3(C)C)cc1)C(=O)O` returned an ED30 in the assay filed under Mus musculus of 92 µM.
